According to ChEMBL document CHEMBL1201862, “PubChem BioAssay data set” (2004):
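Protocol summary: plate cells (96-well), add compound at 5 concentrations, incubate 48 h, interpolate endpoints linearly. GI50: concentration for 50% inhibition of growth.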 The source made the active and inactive calls. Cut-off read from the data, not from the text of the source: active = GI50 up to about 1.1 µM and inactive = higher.

Tests used:
Assay in all cases: inhibition of tumour cell growth, NCI panel, 48 h
[1] = system: 786-0
[2] = system: A498
[3] = system: A549
[4] = system: ACHN
[5] = system: CAKI-1
[6] = system: CCRF-CEM
[7] = system: COLO 205
[8] = system: DLD-1
[9] = system: DMS-114
[10] = system: DMS-273
[11] = system: EKVX
[12] = system: HCC 2998
[13] = system: HCT-116
[14] = system: HCT-15
[15] = system: HL-60
[16] = system: HOP-18
[17] = system: HOP-62
[18] = system: HOP-92
[19] = system: HT-29
[20] = system: IGROV-1
[21] = system: K562
[22] = system: KM-20L2
[23] = system: KM12
[24] = system: LOX IMVI
[25] = system: LXFL 529
[26] = system: M14
[27] = system: M19-MEL
[28] = system: MOLT-4
[29] = system: Malme-3M
[30] = system: NCI-H226
[31] = system: NCI-H23
[32] = system: NCI-H460
[33] = system: NCI-H522
[34] = system: OVCAR-3
[35] = system: OVCAR-4
[36] = system: OVCAR-5
[37] = system: OVCAR-8
[38] = system: RPMI-8226
[39] = system: RXF 393
[40] = system: RXF 631
[41] = system: SF-268
[42] = system: SF-295
[43] = system: SF-539
[44] = system: SK-MEL-28
[45] = system: SK-MEL-2
[46] = system: SK-MEL-5
[47] = system: SK-OV-3
[48] = system: SN12C
[49] = system: SNB-75
[50] = system: SNB-78
[51] = system: SR
[52] = system: SW-620
[53] = system: TK-10
[54] = system: U-251
[55] = system: UACC-257
[56] = system: UACC-62
[57] = system: UO-31
[58] = system: SNB-19
[59] = system: XF498

In the case of `C[N+](C)(C)CC1CCCC(C[N+](C)(C)C)C1O` (stereo not drawn), the GI50 [1] was > 100 µM (inactive), the GI50 [2] was > 100 µM (inactive) and the GI50 [3] was > 100 µM (inactive). For the same compound, the GI50 [4] was > 100 µM (inactive), the GI50 [5] was > 100 µM (inactive) and the GI50 [6] was > 100 µM (inactive). The GI50 [7] was > 100 µM (inactive), the GI50 [8] was > 100 µM (inactive) and the GI50 [9] was > 100 µM (inactive). The GI50 [10] was > 100 µM (inactive), the GI50 [11] was > 100 µM (inactive) and the GI50 [12] was > 100 µM (inactive). For the same compound, the GI50 [13] was > 100 µM (inactive), the GI50 [14] was over 100 µM and the GI50 [15] was > 100 µM (inactive). For the same compound, the GI50 [16] was > 100 µM (inactive), the GI50 [17] was > 100 µM (inactive) and the GI50 [18] was > 100 µM (inactive). For the same compound, the GI50 [19] was > 100 µM (inactive), the GI50 [20] was > 100 µM (inactive) and the GI50 [21] was > 100 µM (inactive). The GI50 [22] was > 100 µM (inactive), the GI50 [23] was > 100 µM (inactive) and the GI50 [24] was > 100 µM (inactive). The GI50 [25] was > 100 µM (inactive), the GI50 [26] was > 100 µM (inactive) and the GI50 [27] was > 100 µM (inactive). The GI50 [28] was > 100 µM (inactive), the GI50 [29] was > 100 µM (inactive) and the GI50 [30] was > 100 µM (inactive). For the same compound, the GI50 [31] was > 100 µM (inactive), the GI50 [32] was > 100 µM (inactive) and the GI50 [33] was > 100 µM (inactive). For the same compound, the GI50 [34] was > 100 µM (inactive), the GI50 [35] was > 100 µM (inactive) and the GI50 [36] was > 100 µM (inactive). For the same compound, the GI50 [37] was > 100 µM (inactive), the GI50 [38] was > 100 µM (inactive) and the GI50 [39] was > 100 µM (inactive). For the same compound, the GI50 [40] was > 100 µM (inactive), the GI50 [41] was > 100 µM (inactive) and the GI50 [42] was > 100 µM (inactive). For the same compound, the GI50 [43] was > 100 µM (inactive), the GI50 [44] was > 100 µM (inactive) and the GI50 [45] was > 100 µM (inactive). For the same compound, the GI50 [46] was > 100 µM (inactive), the GI50 [47] was > 100 µM (inactive) and the GI50 [48] was > 100 µM (inactive). For the same compound, the GI50 [49] was > 100 µM (inactive), the GI50 [50] was > 100 µM (inactive) and the GI50 [51] was > 100 µM (inactive). The GI50 [52] was > 100 µM (inactive), the GI50 [53] was > 100 µM (inactive) and the GI50 [54] was > 100 µM (inactive). For the same compound, the GI50 [55] was > 100 µM (inactive), the GI50 [56] was > 100 µM (inactive) and the GI50 [57] was > 100 µM (inactive).
In the case of `CCCCCCCCCCCCCCCCCCCCCCC(=O)N[C@H]1CCc2cc(OC)c(OC)c(OC)c2-c2ccc(SC)c(=O)cc21`, the GI50 [1] was 40.2 µM (inactive), the GI50 [2] was 11.5 µM (inactive) and the GI50 [3] was 26.4 µM (inactive). The GI50 [4] was 63.8 µM (inactive), the GI50 [5] was 46.7 µM (inactive) and the GI50 [6] was 30.1 µM (inactive). For the same compound, the GI50 [7] was 12.8 µM (inactive), the GI50 [10] was 27.9 µM (inactive) and the GI50 [11] was 29.1 µM (inactive). For the same compound, the GI50 [12] was 25.5 µM (inactive), the GI50 [13] was 26 µM (inactive) and the GI50 [14] was 26.4 µM. The GI50 [15] was 17.1 µM (inactive), the GI50 [17] was 16.1 µM (inactive) and the GI50 [18] was 34.4 µM (inactive). The GI50 [19] was 30.6 µM (inactive), the GI50 [20] was 49.1 µM (inactive) and the GI50 [21] was 30.5 µM (inactive). The GI50 [22] was 18.7 µM (inactive), the GI50 [23] was 35.2 µM (inactive) and the GI50 [25] was 41.9 µM (inactive). The GI50 [26] was 27.5 µM (inactive), the GI50 [27] was 50 µM (inactive) and the GI50 [28] was 27 µM (inactive). For the same compound, the GI50 [29] was 51.5 µM (inactive), the GI50 [30] was 2.52 µM (inactive) and the GI50 [31] was 25.5 µM (inactive). The GI50 [32] was 28.4 µM (inactive), the GI50 [33] was 13.4 µM (inactive) and the GI50 [34] was 24.2 µM (inactive). The GI50 [35] was > 100 µM (inactive), the GI50 [36] was > 100 µM (inactive) and the GI50 [37] was 26.5 µM (inactive). The GI50 [40] was 14.1 µM (inactive), the GI50 [41] was 59.7 µM (inactive) and the GI50 [42] was 34.6 µM (inactive). The GI50 [43] was 17.6 µM (inactive), the GI50 [44] was 84.5 µM (inactive) and the GI50 [46] was 28.4 µM (inactive). The GI50 [47] was 7.19 µM (inactive), the GI50 [48] was 28.2 µM (inactive) and the GI50 [58] was 39.1 µM (inactive). For the same compound, the GI50 [49] was 20.2 µM (inactive), the GI50 [50] was 41.9 µM (inactive) and the GI50 [51] was 23.5 µM (inactive). The GI50 [52] was 30.3 µM (inactive), the GI50 [53] was 40.1 µM (inactive) and the GI50 [54] was 24.2 µM (inactive). For the same compound, the GI50 [55] was 39.2 µM (inactive), the GI50 [56] was 40 µM (inactive) and the GI50 [57] was 48 µM (inactive). The GI50 [59] was 20.8 µM (inactive).
`CC[C@@]1(O)C[C@H](OC2CC(N(C)C)C(OC3CC(O)C(OC4CCC(=O)C(C)O4)C(C)O3)C(C)O2)c2c(cc3c(c2O)C(=O)c2c(O)cccc2C3=O)[C@H]1C(=O)OC` (stereo partly drawn) was tested, and the GI50 [6] was 0.0229 µM (active), the GI50 [8] was 0.0238 µM (active) and the GI50 [15] was 0.0231 µM (active). For the same compound, the GI50 [16] was 0.0458 µM (active), the GI50 [22] was 0.0247 µM (active) and the GI50 [25] was 0.00776 µM (active). The GI50 [38] was 0.0243 µM (active), the GI50 [40] was 0.00711 µM (active) and the GI50 [44] was 0.0443 µM (active).
